In brackets after ≈: the same amount, converted by molar mass. Like-named read-outs stand apart in the source and are kept apart here.
Test system: S. aureus
Assay: Minimum Inhibitory Concentration (MIC), inhibition of growth of S. aureus in vitro
Format: cell-based
Conditions: Staphylococcus aureus
Protocol: Once the compounds of the present invention were identified through the MazEF screening assay described above, the activity of the compounds to inhibit growth of S. aureus in vitro was tested using the standard method of determining Minimum Inhibitory Concentrations (MICs). Such methods are well known to those of skill in the art since determining MIC doses is a standard assay in development of antibiotic drugs. For example, MIC values can be determined according to the Clinical and Laboratory Standards Institute guidelines. In Table 1, the MIC values are presented for each of the ten compounds identified through the MazEF screening assay as having potential for antibiotic activity in S. aureus.

[1] = S. aureus growth in vitro, read-out: MIC

| Structure (SMILES) | MIC [1] [µg/mL] | MIC [µg/mL] |
| --- | --- | --- |
| CN1C(=O)/C(=C/c2cc(Br)cc([N+](=O)[O-])c2O)SC1=S [Compound 2] | 12.5 (≈ 33.3 µM) |  |
| Cc1ccc(Nc2nc3nonc3nc2N)c(C)c1 [Compound 4] |  | 12.5 (≈ 48.8 µM) |
| O=C1c2ccccc2-c2onc3ccc(Cl)c1c23 [Compound 5] |  | 6.25 (≈ 24.4 µM) |
| COc1ccc(/C=C2\SC(=O)NC2=S)cc1 [Compound 6] | 0.78 (≈ 3.1 µM) |  |
| COc1cc(/C=C2/S/C(=N\S(=O)(=O)c3ccccc3)NC2=O)ccc1O [Compound 7] | 100 (≈ 256 µM) |  |
| CCN1CCc2c(sc(NC(=O)Nc3ccc(Cl)cc3)c2C(N)=O)C1 [Compound 9] | 100 (≈ 264 µM) |  |
